The test relates to SU-DHL-4 cell line. The experiment in a line: SU-DHL-4 cell proliferation assay (Cell Titer-Glo viability). Format: cell-based. Conditions: Homo sapiens; cell viability IC50 activity level, DLBCL cell line SU-DHL-4, 120 hours post-treatment; read-out: SU-DHL-4 Act. Put shortly: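 SU-DHL-4 cells (500/well, RPMI-1640 + 10% FBS) exposed to 20-point compound dilutions (0.5 nM–10 μM, 0.1% DMSO) for 120 h at 37°C, 5% CO2. Viability measured by Cell Titer-Glo luminescence at t0 and at 120 h. IC50 is the concentration giving 50% of DMSO control, from a four-parameter logistic fit.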
Background: In ATP-based viability assays light output follows the ATP content of the culture.
In the case of `CC1(C)CN(c2ccc(C#N)nc2)CCN1Cc1ccc(CNc2cccc3c2C(=O)N(C2CCC(=O)NC2=O)C3=O)cc1` (stereo not shown) [Cpd 85, 5-(4-(4-((2-(2,6-dioxopiperidin-3-yl)-1,3-dioxoisoindolin-4-ylamino)methyl)benzyl)-3,3-dimethylpiperazin-1-yl)picolinonitrile], the IC50 is below 200 nM.
Consider `Cc1cc(CNc2cccc3c2C(=O)N(C2CCC(=O)NC2=O)C3=O)ccc1CN1CCN(c2ccnc(C(N)=O)c2)CC1` (stereo not shown) [Cpd 190, 4-(4-(4-((2-(2,6-dioxopiperidin-3-yl)-1,3-dioxoisoindolin-4-ylamino)methyl)-2-methylbenzyl)piperazin-1-yl)picolinamide], for which the IC50 lay within 200 to 500 nM.
Take `O=C1CCC(N2C(=O)c3cccc(NCc4ccc(CN5CCN(c6ccc(Cl)cc6Cl)CC5)cc4)c3C2=O)C(=O)N1` (stereo not shown) [Cpd 4, 4-(4-((4-(2,4-dichlorophenyl)piperazin-1-yl)methyl)benzylamino)-2-(2,6-dioxopiperidin-3-yl)isoindoline-1,3-dione]: the IC50 lay in the range of 501 to 750 nM.
The value for `Cc1cc(CNc2cccc3c2C(=O)N(C2CCC(=O)NC2=O)C3=O)ccc1CN1CCC(C(C)C)CC1` (stereo not shown) [Cpd 40, 2-(2,6-dioxopiperidin-3-yl)-4-(4-((4-isopropylpiperidin-1-yl)methyl)-3-methylbenzylamino)isoindoline-1,3-dione] was below 200 nM.
Consider `Cc1cc(CN2CCN(c3ccc(F)cc3F)CC2)ccc1CNc1cccc2c1C(=O)N(C1CCC(=O)NC1=O)C2=O` (stereo not shown) [Cpd 101, 4-(4-((4-(2,4-difluorophenyl)piperazin-1-yl)methyl)-2-methylbenzylamino)-2-(2,6-dioxopiperidin-3-yl)isoindoline-1,3-dione], for which the IC50 fell in the range of 200 to 500 nM.
`CCC1CN(Cc2ccc(CNc3cccc4c3C(=O)N(C3CCC(=O)NC3=O)C4=O)cc2)C1` (stereo not shown) [Cpd 112, 2-(2,6-dioxopiperidin-3-yl)-4-(4-((3-ethylazetidin-1-yl)methyl)benzylamino)isoindoline-1,3-dione]: the IC50 lay within 200 to 500 nM.
As to `CC1(C)CN(c2ccc(Cl)cc2)CCN1Cc1ccc(CNc2cccc3c2C(=O)N(C2CCC(=O)NC2=O)C3=O)cc1` (stereo not shown) [Cpd 34, 4-(4-((4-(4-chlorophenyl)-2,2-dimethylpiperazin-1-yl)methyl)benzylamino)-2-(2,6-dioxopiperidin-3-yl)isoindoline-1,3-dione], the IC50 lay in the range of 751 to 1000 nM.
Consider `CC(C)(C)C1CCN(Cc2ccc(CNc3cccc4c3C(=O)N(C3CCC(=O)NC3=O)C4=O)cc2F)CC1` (stereo not shown) [Cpd 92, 4-(4-((4-tert-butylpiperidin-1-yl)methyl)-3-fluorobenzylamino)-2-(2,6-dioxopiperidin-3-yl)isoindoline-1,3-dione], for which the IC50 is below 200 nM.
Regarding `Cc1cc(CNc2cccc3c2C(=O)N(C2CCC(=O)NC2=O)C3=O)ccc1CN1CC(N2CC3CCC(C2)O3)C1` (stereo not shown) [Cpd 223, 4-(4-((3-(8-oxa-3-azabicyclo[3.2.1]octan-3-yl)azetidin-1-yl)methyl)-3-methylbenzylamino)-2-(2,6-dioxopiperidin-3-yl)isoindoline-1,3-dione], the IC50 is below 200 nM.
Take `N#Cc1ccc(C2CN(Cc3ccc(CNc4cccc5c4C(=O)N(C4CCC(=O)NC4=O)C5=O)cc3)C2)cc1` (stereo not shown) [Cpd 7, 4-(1-(4-((2-(2,6-dioxopiperidin-3-yl)-1,3-dioxoisoindolin-4-ylamino)methyl)benzyl)azetidin-3-yl)benzonitrile]: the IC50 is below 200 nM.
`Cc1cc(CNc2cccc3c2C(=O)N(C2CCC(=O)NC2=O)C3=O)ccc1CN1CC(c2ccccn2)C1` (stereo not shown) [Cpd 81, 2-(2,6-dioxopiperidin-3-yl)-4-(3-methyl-4-((3-(pyridin-2-yl)azetidin-1-yl)methyl)benzylamino)isoindoline-1,3-dione]: the IC50 is 200 to 500 nM.
In the case of `CC1(C)CN(c2ccc(C(N)=O)nc2)CCN1Cc1ccc(CNc2cccc3c2C(=O)N(C2CCC(=O)NC2=O)C3=O)cc1` (stereo not shown) [Cpd 86, 5-(4-(4-((2-(2,6-dioxopiperidin-3-yl)-1,3-dioxoisoindolin-4-ylamino)methyl)benzyl)-3,3-dimethylpiperazin-1-yl)picolinamide], the IC50 is below 200 nM.
For the compound `NC(=O)c1ccc(N2CCN(Cc3ccc(CNc4cccc5c4C(=O)N(C4CCC(=O)NC4=O)C5=O)cc3)CC2)cn1` (stereo not shown) [Cpd 17, 5-(4-(4-((2-(2,6-dioxopiperidin-3-yl)-1,3-dioxoisoindolin-4-ylamino)methyl)benzyl)piperazin-1-yl)picolinamide], the IC50 is below 200 nM.
To `O=C1CCC(N2C(=O)c3cccc(NCc4ccc(CN5CCN(c6ccc(F)cn6)CC5)cc4)c3C2=O)C(=O)N1` (stereo not shown) [Cpd 32, 2-(2,6-dioxopiperidin-3-yl)-4-(4-((4-(5-fluoropyridin-2-yl)piperazin-1-yl)methyl)benzylamino)isoindoline-1,3-dione] belongs 200 to 500 nM; to `N#Cc1ccc(N2CCN(Cc3ccc(CNc4cccc5c4C(=O)N(C4CCC(=O)NC4=O)C5=O)cc3)CC2)c(Cl)c1` (stereo not shown) [Cpd 9, 3-chloro-4-(4-(4-((2-(2,6-dioxopiperidin-3-yl)-1,3-dioxoisoindolin-4-ylamino)methyl)benzyl)piperazin-1-yl)benzonitrile], below 200 nM; to `Cc1cc(CNc2cccc3c2C(=O)N(C2CCC(=O)NC2=O)C3=O)ccc1CN1CC(N2CCOCC2(C)C)C1` (stereo not shown) [Cpd 238, 4-(4-((3-(3,3-dimethylmorpholino)azetidin-1-yl)methyl)-3-methylbenzylamino)-2-(2,6-dioxopiperidin-3-yl)isoindoline-1,3-dione], below 200 nM.
For the compound `O=C1CCC(N2C(=O)c3cccc(NCc4ccc(CN5CCN(c6ccc(F)cc6F)CC5)cc4)c3C2=O)C(=O)N1` (stereo not shown) [Cpd 1, 4-(4-((4-(2,4-difluorophenyl)piperazin-1-yl)methyl)benzylamino)-2-(2,6-dioxopiperidin-3-yl)isoindoline-1,3-dione], the IC50 lay within 501 to 750 nM.
As for `Cc1cc(CNc2cccc3c2C(=O)N(C2CCC(=O)NC2=O)C3=O)ccc1CN1CCC(C(F)(F)F)CC1` (stereo not shown) [Cpd 45, 2-(2,6-dioxopiperidin-3-yl)-4-(3-methyl-4-((4-(trifluoromethyl)piperidin-1-yl)methyl)benzylamino)isoindoline-1,3-dione], the IC50 is below 200 nM.
Regarding `O=C1CCC(N2C(=O)c3cccc(NCc4ccc(CN5CCC6(CCCO6)CC5)cc4)c3C2=O)C(=O)N1` (stereo not shown) [Cpd 90, 4-(4-(1-oxa-8-azaspiro[4.5]decan-8-ylmethyl)benzylamino)-2-(2,6-dioxopiperidin-3-yl)isoindoline-1,3-dione], the IC50 was below 200 nM.
Consider `NC(=O)c1ccc(N2CCN(Cc3ccc(CNc4cccc5c4C(=O)N([C@H]4CCC(=O)NC4=O)C5=O)c(F)c3)CC2)nc1` [Cpd 207, (S)-6-(4-(4-((2-(2,6-dioxopiperidin-3-yl)-1,3-dioxoisoindolin-4-ylamino)methyl)-3-fluorobenzyl)piperazin-1-yl)nicotinamide], for which the IC50 is below 200 nM.
On to `Cc1cc(C#N)ccc1N1CCN(Cc2ccc(CNc3cccc4c3C(=O)N(C3CCC(=O)NC3=O)C4=O)cc2)CC1` (stereo not shown) [Cpd 8, 4-(4-(4-((2-(2,6-dioxopiperidin-3-yl)-1,3-dioxoisoindolin-4-ylamino)methyl)benzyl)piperazin-1-yl)-3-methylbenzonitrile], for which the IC50 lay within 200 to 500 nM.
The value for `Cc1cc(CNc2cccc3c2C(=O)N(C2CCC(=O)NC2=O)C3=O)ccc1CN1CC(N2CCCC2)C1` (stereo not shown) [Cpd 217, 2-(2,6-dioxopiperidin-3-yl)-4-(3-methyl-4-((3-(pyrrolidin-1-yl)azetidin-1-yl)methyl)benzylamino)isoindoline-1,3-dione] was below 200 nM.

The values are drawn from patent US11358952B2, “Substituted 4-aminoisoindoline-1,3-dione compounds, compositions thereof, and methods of treatment therewith” (Celgene Corporation, priority 2018, dated 2022).
